The subject of series [1] is PCK rat (a recessive PKD model). The conditions noted are these: Wang et al., 2008; cited from earlier work.
The test system of series [2] is HDAC5 phosphorylation (Ser489). Description: HDAC5 phosphorylation immunoblot in MEK cells without or with fluid flow. The conditions noted are these: for fluid flow-induced HDAC5 phosphorylation: fluid flow 0.2 ml/min, GÖ6983 10 μM, GdCl3 20 μM; for HDAC5 phosphorylation in the absence of fluid flow: no fluid flow, PMA 100 nM, ionomycin 1 μM, phospho-specific antibody. The series is classed as cell-based, mouse. The procedure: (§1) Confluent mouse embryonic kidney (MEK) cells were cultured for 1-2 additional days in the absence of interferon-γ to induce optimal differentiation (Nauli et al., 2003). Hanks' Balanced Salt Solution with 20.0 mM HEPES buffer (pH 7.4) and 1% bovine serum albumin was used for calcium imaging and cell culture media for the other experiments. Fluid flow was applied at 0.2 ml/min using a peristaltic pump in 35 mm dishes or 6-well plates, with tubings connected through two 18 Gauge needles at opposing sides of a well (FIG. 9A). Time-lapse imaging was performed on an Axiovert 200M inverted microscope (Karl Zeiss Microlmaging Inc., Thornwood, N.Y.) equipped with a 20×/0.8 NA Plan-Apochromat objective, a Pecon XL-3 environmental chamber (PeCon GmbH, Erbach, Germany) and an AxioCam HSm r1.1 digital monochrome camera (Karl Zeiss). In drug treatments, […] (Sigma-Aldrich, St. Louis, Mo.) was used at 100 nM, GÖ6983 (Sigma-Aldrich) at 10 μM, ionomycin (Sigma-Aldrich) at 1 μM, and GdCl3 (Sigma-Aldrich) at 20 μM.
Whether fluid flow across monolayers of MEK cells led to endogenous HDAC5 phosphorylation was determined using a phospho-specific antibody against HDAC5 Ser489 site (equivalent of Ser498 of human HDAC5) (Bossuyt et al., 2008). While HDAC5 phosphorylation level was low prior to fluid flow onset, an increase in phosphorylation was observed 30 minutes after the start of fluid flow and maintained for several hours thereafter (FIGS. 1A and 1B). The increase in HDAC5 phosphorylation was accompanied by an increase in the level of total HDAC5 (FIGS. 12A, C), consistent with the flow-induced gene expression of HDAC5 observed in the microarray analysis (Table 2). […] By contrast, HDAC5 phosphorylation was induced by the calcium ionophore, ionomycin, in the absence of fluid flow (FIG. 1D, see also FIG. 20 for the quantification of HDAC5 phosphorylation levels under various conditions). Treatment with PMA, an activator of protein kinase C(PKC), stimulated HDAC5 phosphorylation in the absence of fluid flow, while the PKC inhibitor GÖ6983 inhibited flow-induced HDAC5 phosphorylation (FIGS. 1D and 20).
For orientation: A western blot detects proteins with antibodies after separation by electrophoresis.

For series [3], the system named is HDAC5 nuclear export. In words: HDAC5-GFP nuclear export in transfected MEK cells. The series is classed as cell-based, mouse. The following applies: for fluid flow-induced HDAC5 nuclear export: GÖ6983 10 μM, GdCl3. The procedure:
as §1
To determine whether HDAC5 was exported from the nucleus in response to fluid flow, FLAG-MEF2C and HDAC5-GFP constructs were co-transfected into Pkd1^+/+ and Pkd1^−/− MEK cells, and both tagged proteins correctly localized to the nucleus. Stimulation of MEK cells with fluid flow for 30 min led to translocation of HDAC5-GFP, but not FLAG-MEF2C, from the nucleus in Pkd1^+/+. MEK cells, but not in Pkd1^−/− MEK cells (FIG. 2A). […] By contrast, a HDAC5-GFP mutant lacking the 14-3-3 phosphorylation sites (HDAC5^S250/489A) was not exported (FIG. 2C), consistent with a requirement for phosphorylation of these regulatory sites in fluid flow-induced nuclear export of HDAC5. HDAC5 nuclear export also failed in Pkd1^−/− MEK cells, cells treated with GdCl3 (FIG. 2C), or the PKC inhibitor GÖ6983, while treatment with PMA stimulated HDAC5 nuclear exit even without fluid flow (FIG. 2D).

The test system of series [4] is PKD^ws25/− mice. In words: SAHA treatment of PKDws25/− mice (mouse model of PKD). The conditions noted are these: 4 weeks. The procedure: PKD^ws25/− mice (Wu et al., 1998) were obtained from Albert Einstein College of Medicine (Bronx, N.Y.). PKD^ws25/− mice escape the embryonic lethality of the PKD^−/− phenotype, but recapitulate the human ADPKD phenotype in that they develop cysts early in life (Wu et al., 1998). Eight week old PKD^ws25/− mice (n=15 per group) were treated with 100 mg/kg vorinostat (SAHA) or vehicle (Veh). Animals were dosed daily by i.p. for 5 days followed by 2 days off, for a total of 4 weeks. […] At the end of study, animals were sacrificed and blood taken for analysis of blood urea nitrogen (BUN) levels using the manufacturer's protocol for Hitachi Urea Nitrogen (BUN) Reagent Set (Pointe Scientific, Inc., Canton, Mich.).

Series [5] has as its system Pkd2−/− embryos. Description: TSA injection of pregnant Pkd2+/- mice, histology of E18.5 embryonic kidneys. It is filed as in vivo, mouse. The procedure:
(§2) Pkd2^+/− mice were originally provided by S. Somlo (Yale University, New Haven, Conn.) and Hdac5^−/− mice by E. Olson (University of Texas Southwestern Medical Center, Dallas, Tex.). To obtain embryos of various genotypes, the mutant mice were paired and the pregnant females were sacrificed on 18.5 DPC to collect embryonic kidneys. For TSA treatment experiments pregnant Pkd2^+/− females paired with Pkd2^+/− males were subcutaneously injected daily, from 10.5 dpc to 18.5 dpc with 0.5 μg TSA (Biomol, Enzo Life Sciences Inc., Farmingdale, N.Y.) per gram mouse body weight or DMSO (solvent of TSA) in phosphate buffered saline (PBS). At the end of this treatment, females were sacrificed and embryonic kidneys were collected.
(§3) To test further the possibility that reducing the activity of HDAC5 could suppress cyst formation in Pkd2^−/− embryos, trichostatin A (TSA), a chemical inhibitor against type I and II HDACs (Drummond et al., 2005), was injected into pregnant Pkd2+/− female mice from 10.5 dpc after mating with Pkd2+/− males, and embryonic kidneys were analyzed at 18.5 dpc.

Series [6] concerns MIM. Description: Immunoblot of MIM in Pkd2−/− embryonic kidneys from TSA-treated mothers. It is filed as in vivo, mouse. The following applies: TSA-treated vs DMSO-treated mothers. The procedure: as §2, §3
The test system of series [7] is MEF2C. In words: Immunoblot of MEF2C in Pkd2−/− embryonic kidneys from TSA-treated mothers. It is filed as in vivo, mouse. The following applies: TSA-treated vs DMSO-treated mothers. The procedure: as §2, §3

On to “1-deamino-8-D-arginine vasopressin [dDAVP]”, for which, in series [1], the “effect on cystic disease” value is “aggravated cystic disease”.

On to `[Cl][Gd]([Cl])[Cl]` [GdCl3], for which, in series [2], the “fluid flow-induced HDAC5 phosphorylation” value is recorded as “blocked”. The “fluid flow-induced HDAC5 nuclear export” value in series [3] was “failed”.

Consider `COc1ccc2c(c1)c(C1=C(c3c[nH]c4ccccc34)C(=O)NC1=O)cn2CCCN(C)C` [GÖ6983], for which the “fluid flow-induced HDAC5 phosphorylation” value in series [2] is given as “inhibited”. Besides, the “fluid flow-induced HDAC5 nuclear export” value in series [3] is “failed”.

For the compound `CCCCCCCCCCCCCC(=O)O[C@@H]1[C@@H](C)[C@@]2(O)[C@@H](C=C(CO)C[C@]3(O)C(=O)C(C)=C[C@@H]23)[C@@H]2C(C)(C)[C@]12OC(C)=O` [PMA, 12-myristate 13-acetate], the “HDAC5 phosphorylation in the absence of fluid flow” value in series [2] is “stimulated”. For the same compound, the “HDAC5 nuclear exit without fluid flow” value in series [3] (no fluid flow, 100 nM PMA) is on record as “stimulated”.

In the case of `O=C(CCCCCCC(=O)Nc1ccccc1)NO` [SAHA, suberoylanilide hydroxamic acid], in series [4] (100 mg/kg i.p. daily 5 days on, 2 days off, compared to vehicle), the “blood urea nitrogen (BUN) levels” value was “significantly lower”. Besides, the animals lost entry in series [4] (100 mg/kg i.p., n=15 per group) is reported as “one”. Besides, the “renal tubular epithelial morphology” value in series [4] (100 mg/kg i.p., kidney images vs control) is given as “well organized, nearly normal epithelial morphology”.

On to `CC(/C=C/C(=O)NO)=C\[C@@H](C)C(=O)c1ccc(N(C)C)cc1` [TSA, trichostatin A], for which the “kidney cyst formation in Pkd2−/− embryos” value in series [5] (0.5 μg TSA per gram body weight s.c. daily to mothers 10.5-18.5 dpc, compared to DMSO-injected mothers) is reported as “drastically reduced”. In addition, the “morphology of renal tubules in Pkd2+/+ embryonic kidneys” value in series [5] (Pkd2+/+ embryos from TSA-injected mothers) is on record as “did not affect”. The “morphology of cyst lining cells in Pkd2−/− kidneys” value in series [5] (TSA-treated mothers, as opposed to flat morphology of Pkd2−/− cyst lining cells) is “more normal cuboidal morphology”. Also, the “expression of MIM” value in series [6] was “drastically increased”. In series [7], the “enhancement of expression of MEF2C” value turned out to be 4 fold.

As to `C[C@H](CCC(=O)O)C[C@H](C)C[C@H](C)C(=O)/C=C(\O)[C@H](C)C[C@H](C)C/C=C/[C@@H](C)[C@@H](O)[C@@H](C)[C@@H](O)C[C@@H]1CC[C@@](C)([C@H]2CC[C@@](C)([C@@H](C)O)O2)O1` [ionomycin], in series [2], the “HDAC5 phosphorylation in the absence of fluid flow” value is listed as “induced”.

(Values after patent US20120122787A1, “METHODS FOR TREATING POLYCYSTIC KIDNEY DISEASE (PKD) OR OTHER CYST FORMING DISEASES” (priority 2009, published 2012).)
